{"source": "paper PMC7738856", "about": "“Inter and intra-tumor somatostatin receptor 2 heterogeneity influences peptide receptor radionuclide therapy response” (Theranostics, 2021)", "key": {"[1]": {"system": "CA20948 and NCI-H69 cells", "test": "In vitro uptake of radioactivity (γ-counts) in cells", "type": "cell-based", "conditions": "1 MBq/mL, 4 h incubation, n = 3 experiments", "method": "NCI-H69 cells (ATCC) were cultured in Rosewell Park Medium Institute […] medium (RPMI-1638) (Sigma-Aldrich) supplemented with penicillin (50 units/mL), streptomycin (50 µg/mL) (Pen/Strep) and 10% fetal calf serum (FCS). CA20948 [14] cells were cultured in Dulbecco's Modified Eagle's Medium (DMEM) (Gibco) supplemented with Pen/Strep and 10% FCS. Cells were cultured at 37 °C and 5% CO2.\nNCI-H69 cells were spun down on a glass slide using a cytospin centrifuge (Rotofix 32A, Hettich) for 6 minutes at 347 g at room temperature (RT). CA20948 cells were washed and fixed on coverslips. Fixation was done using 2% paraformaldehyde (PFA) for 20 minutes at RT and samples were stained according to protocol (see below).\nS4. [177Lu]Lu-DO T A -TATE uptake in SST2hi g h and SST2low NCI-H69 cells. (A) lutetium- 177 uptake measured by γ-counts in NCI-H69 and CA20948 cells after 4 hours of incubation (experiment n = 3).\n**p < 0.01 (B) Representative IF images of SST2 after [ 177Lu]Lu-DOT A- TATE treatment. Arrows indicate internalization and accumulation of SST 2.\nS5. Additional foci quantifications in SST2hi g h and SST2low cells. γH2AX foci quantification in SST2high and SST 2lo w NC I -H69 cells 2 days after [177Lu]Lu-DOT A -TATE treatment. Error bars indicate […]"}, "[2]": {"system": "NCI-H69 tumors", "test": "TUNEL assay on tumor sections", "type": "in vivo, BALB-c/nude mice", "conditions": "30 MBq, n = 4; for TUNEL positive areas (average): 25 fields of view per tumor", "method": "BALB-c/nude mice were engrafted subcutaneously with 5 x 10^6 NCI-H69 cells in 200 µl Hanks Balanced Salt Solution (HBSS) (Gibco, 14065056) containing 33,3% Matrigel (Corning, 354248). […] Organs were put in a gamma-counter for measurement of radioactive uptake and then fixed in formalin for 1 day at RT and stored in 70% ethanol until they were embedded in paraffin. Uninjected animals were used as control (n = 4). Tissue sections of 4 µm were deparaffinized and rehydrated. TUNEL assay was performed using the In Situ Cell Death Detection Kit, Fluorescein (Roche, 11684795910) according to manufacturer's instructions. 53BP1 and γH2AX focus formation was imaged with a Leica SP5 confocal microscope (Leica) using Z-stack acquisition. For tile-scan analyses a LSM700 confocal microscope (Zeiss) was used. Tiles were stitched, thresholded and quantified using ImageJ."}, "[3]": {"system": "CA20948 tumors", "test": "Tumor growth and survival, CA20948 xenografts", "type": "in vivo, BALB-c/nude mice", "conditions": "treated CA20948 bearing mice, 30 MBq, n = 9", "method": "(§1) Animal experiments were approved by the Animal Welfare Committee of the Erasmus MC and were conducted in accordance with European guidelines. Animal experiments included a time series for analyses of radiobiological parameters in NCI-H69 xenografts and survival cohorts with NCI-H69 or CA20948 xenografts.\n(§2) BALB-c/nude mice were engrafted subcutaneously with 5 x 10^6 NCI-H69 cells in 200 µl HBSS containing 33,3% Matrigel or with 5 x 10^6 CA20948 cells in 200 µl HBSS. Mice with NCI-H69 tumors (n = 8) were injected when tumor volumes reached 697 ± 256 mm^3 and mice with CA20948 tumors (n = 9) when tumor reached 318 ± 216 mm^3. Both groups were compared to vehicle injected counterparts (n = 8 and n = 6, respectively). Tumor volumes were measured three times per week p.i. Mice were sacrificed when tumor volumes reached the humane endpoint of 2000 mm^3. Tumors were fixed in formalin for 1 day at RT and stored in 70% ethanol until they were embedded in paraffin."}, "[4]": {"system": "NCl-H69 xenografted mice", "set-up": "species or system BALB-c/nude mice", "conditions": "mouse, in vivo, iv", "method": "BALB-c/nude mice were engrafted subcutaneously with 5 x 10^6 NCI-H69 cells in 200 µl Hanks Balanced Salt Solution (HBSS) (Gibco, 14065056) containing 33,3% Matrigel (Corning, 354248). […] Mice were sacrificed by cervical dislocation and analyzed at 1 h, 1, 2, 3, 4, 5, 7, 9, 11 and 14 days post injection (p.i.). Organs were put in a gamma-counter for measurement of radioactive uptake and then fixed in formalin for 1 day at RT and stored in 70% ethanol until they were embedded in paraffin. Uninjected animals were used as control (n = 4).\nThe biodistribution data were analyzed to determine the kinetics of the activity in organs and tumors. The measured activity data as a function of time were fitted with single or double exponential curves using the least-square regression method with Graphpad Prism version 5 (graphpad.com). Decisions on to use a single or a double exponential curve was based on the (corrected) Akaike's information criterion. The time-activity curves were integrated over time to determine the time-integrated activity coefficients after folding in the lutetium-177 decay function. Absorbed doses in all organs and in the tumor were calculated by using the MIRD equation with the lutetium-177 S-values for a 22 g mouse Moby phantom, kindly provided by Dr Erik Larsson."}, "[5]": {"system": "NCl-H69 tumors", "test": "Ki-67 immunohistochemistry of tumor sections", "type": "in vivo, BALB-c/nude mice", "method": "BALB-c/nude mice were engrafted subcutaneously with 5 x 10^6 NCI-H69 cells in 200 μl Hanks Balanced Salt Solution (HBSS) (Gibco, 14065056) containing 33,3% Matrigel (Corning, 354248). […] Organs were put in a gamma-counter for measurement of radioactive uptake and then fixed in formalin for 1 day at RT and stored in 70% ethanol until they were embedded in paraffin. Uninjected animals were used as control (n = 4). […] Secondary antibodies used are donkey-anti-rabbit IgG Alexa Fluor 594 (Thermo Fisher, A-11078; 1:500) and donkey-anti-mouse IgG Alexa Fluor 488 (Thermo Fisher; A-11005; 1:500). For immunohistochemical stainings (IHC) Ki-67 (Abcam, ab15580; 1:200) was used. Here, the secondary antibody used is Peroxidase donkey-anti-rabbit IgG (Jackson Immunoresearch, 711-035-152; 1:2000). Tissue sections of 4 μm were deparaffinized and rehydrated. Samples were then incubated in 3% H2O2 (Honeywell, 95299) in methanol (Honeywell, 32213-2.5l) for 20 minutes at RT. Slides were washed with tap water and boiled in pH 6 Antigen Retrieval buffer for 20 minutes. Slides were incubated in blocking solution (PBS 5%BSA), following with the primary antibody in blocking solution overnight at 4 °C and with the secondary antibody in blocking solution for 90 minutes at RT. […] Quantification was performed in ImageJ by using particle analysis after."}, "[6]": {"system": "NCI-H69 cells", "test": "53BP1 and γH2AX foci in cells after in vitro treatment", "type": "cell-based", "method": "NCI-H69 cells (ATCC) were cultured in Rosewell Park Medium Institute […] medium (RPMI-1638) (Sigma-Aldrich) supplemented with penicillin (50 units/mL), streptomycin (50 µg/mL) (Pen/Strep) and 10% fetal calf serum (FCS). CA20948 [14] cells were cultured in Dulbecco's Modified Eagle's Medium (DMEM) (Gibco) supplemented with Pen/Strep and 10% FCS. Cells were cultured at 37 °C and 5% CO2. […] NCI-H69 cells were spun down on a glass slide using a cytospin centrifuge (Rotofix 32A, Hettich) for 6 minutes at 347 g at room temperature (RT). CA20948 cells were washed and fixed on coverslips. Fixation was done using 2% paraformaldehyde (PFA) for 20 minutes at RT and samples were stained according to protocol (see below). Cells were IF stained as previously described. Briefly, tissue sections were deparaffinized as described above. Then antigen retrieval was performed by boiling slides for 20 minutes in pH 6 (for cytoplasmic antigens) or pH 9 (for nuclear antigens) antigen retrieval buffer (DAKO) and cooling down to RT. […] Tiles were stitched, thresholded and quantified using ImageJ. ImageJ was utilized to apply the same local threshold (default for DAPI, MaxEntropy for SST2) to all images in order to segment nuclei or quantify DAPI signal and quantify IF signal. Foci were quantified using the Find Maxima function."}, "[7]": {"system": "NCI-H69 tumors", "test": "53BP1 and γH2AX foci (immunofluorescence) in tumor sections", "type": "in vivo, BALB-c/nude mice", "conditions": "2 days p.i.", "method": "BALB-c/nude mice were engrafted subcutaneously with 5 x 10^6 NCI-H69 cells in 200 µl Hanks Balanced Salt Solution (HBSS) (Gibco, 14065056) containing 33,3% Matrigel (Corning, 354248). […] Organs were put in a gamma-counter for measurement of radioactive uptake and then fixed in formalin for 1 day at RT and stored in 70% ethanol until they were embedded in paraffin. Uninjected animals were used as control (n = 4). […] Secondary antibodies used are donkey-anti-rabbit IgG Alexa Fluor 594 (Thermo Fisher, A-11078; 1:500) and donkey-anti-mouse IgG Alexa Fluor 488 (Thermo Fisher; A-11005; 1:500). For immunohistochemical stainings (IHC) Ki-67 (Abcam, ab15580; 1:200) was used. Here, the secondary antibody used is Peroxidase donkey-anti-rabbit IgG (Jackson Immunoresearch, 711-035-152; 1:2000). Cells were IF stained as previously described. Briefly, tissue sections were deparaffinized as described above. Then antigen retrieval was performed by boiling slides for 20 minutes in pH 6 (for cytoplasmic antigens) or pH 9 (for nuclear antigens) antigen retrieval buffer (DAKO) and cooling down to RT. Tissues were permeabilized with PBS+0.5% Triton (PBS(T)) at RT and blocked with 3% BSA in PBS(T) at RT. Sections were incubated with primary antibodies overnight at 4 °C in block buffer and with secondary antibodies for 60 minutes at RT. Mounting was done using Vectashield containing DAPI (Vector labs, H-1200). 53BP1 and γH2AX focus formation was imaged with a Leica SP5 confocal microscope (Leica) using Z-stack acquisition. For tile-scan analyses a LSM700 confocal microscope (Zeiss) was used. Tiles were stitched, thresholded and quantified using ImageJ. ImageJ was utilized to apply the same local threshold (default for DAPI, MaxEntropy for SST2) to all images in order to segment nuclei or quantify DAPI signal and quantify IF signal. Foci were quantified using the Find Maxima function."}, "[8]": {"system": "NCI-H69 tumors", "test": "Tumor growth and survival, NCI-H69 xenografts", "type": "in vivo, BALB-c/nude mice", "conditions": "n = 8", "method": "as §1, §2"}}, "data": [{"compound": "C[C@@H](O)[C@H](NC(=O)[C@@H]1CSSC[C@H](NC(=O)[C@@H](Cc2ccccc2)NC(=O)CN2CCN(CC(=O)O)CCN(CC(=O)O)CCN(CC(=O)O)CC2)C(=O)N[C@@H](Cc2ccc(O)cc2)C(=O)N[C@H](Cc2c[nH]c3ccccc23)C(=O)N[C@@H](CCCCN)C(=O)N[C@@H]([C@@H](C)O)C(=O)N1)C(=O)O", "note": "[[^177Lu]Lu-DOTA-TATE, [^177Lu]Lu-DOTA-[Tyr^3]octreotate, metal not drawn]", "values": [{"measurement": "uptake of radioactivity in CA20948 compared to NCI-H69 cells", "setting": "[1]", "value": 3, "unit": "fold"}, {"measurement": "TUNEL positive areas (average)", "setting": "[2]; 4 days p.i.", "value": 50, "unit": "%"}, {"measurement": "TUNEL positive areas (average)", "setting": "[2]; 5 days p.i.", "value": 47, "unit": "%"}, {"measurement": "fraction of TUNEL positive cells (average)", "setting": "[2]; 14 days after treatment", "value": 26, "unit": "%"}, {"measurement": "median survival", "setting": "[3]", "value": 54, "unit": "days"}, {"measurement": "absorbed dose, kidney", "setting": "[4]", "value": "3.5 ± 0.12", "unit": "Gy"}, {"measurement": "absorbed dose, other organs", "setting": "[4]", "value": "0.22-1.48 Gy"}, {"measurement": "absorbed dose, tumor", "setting": "[4]", "value": "10.08 ± 0.35", "unit": "Gy"}, {"measurement": "Ki-67 positive cells", "setting": "[5]; 2 days after treatment, significantly increased", "value": 74.13, "unit": "%"}, {"measurement": "Ki-67 positive (cycling) cells in non-apoptotic regions", "setting": "[5]; all samples regardless of therapy, except 2 days after treatment", "value": "60.96 ± 5.32", "unit": "%"}, {"measurement": "level of 53BP1 and γH2AX foci per cell versus non-treated cells", "setting": "[6]; 1 day post treatment, 1 MBq/mL for 4 h at 37 °C", "value": "significant increase"}, {"measurement": "γH2AX foci in SST2 high versus SST2 low NCI-H69 cells in vitro", "setting": "[6]; 2 days after incubation, 1 MBq/mL for 4 h", "value": "significant higher number"}, {"measurement": "γH2AX foci in SST2 high cells, treated versus non-treated SST2 high regions", "setting": "[7]; n = 4", "value": "significant increase"}, {"measurement": "γH2AX foci in SST2 high versus SST2 low cells in tumors from treated mice", "setting": "[7]; n = 4", "value": "significantly higher number"}, {"measurement": "γH2AX foci in SST2 low cells, treated versus non-treated mice", "setting": "[7]; n = 4", "value": "no significant increase"}, {"measurement": "increase in the number of γH2AX foci", "setting": "[7]; versus NT controls", "value": 5, "unit": "fold"}, {"measurement": "tumor volume as % of the starting volume", "setting": "[8]; 14 days p.i., then regrowth, 30 MBq single injection", "value": 71, "unit": "%"}, {"measurement": "median survival", "setting": "[8]; treated NCI-H69 bearing mice, 30 MBq", "value": 34, "unit": "days"}]}]}
